From PMC12000433 (Scientific Reports, 2025) come the findings set out here.

For experiment [1], the system named is β1i/LMP2, β5i/LMP7 and β2i/PSMB10 in SK-N-MC^A*02:01 and other EwS cell lines. Kind of experiment: Western blot of immunoproteasome subunits in EwS cell lines. The settings on record: IFN-γ 100U/ml, 24 h. It is filed as cell-based, human.
Experiment [2] has as its system MHC class I on EwS cell lines. Nature of the experiment: flow cytometry of MHC class I on EwS cell lines. It is filed as cell-based, human. The settings on record: IFN-γ 100U/ml, 24 h; W6/32 and BB7.2 mAbs.

As for “IFN-γ: inflammatory cytokine used to treat EwS cell lines and tumors”, the immunoproteasome subunit expression entry in experiment [1] is “induced de novo expression of immunoproteasome subunits”. Further, the “MHC class I expression” value in experiment [2] is listed as “induced MHC class I upregulation”.
